Results reported in patent publication US8517736B2, “Method for alleviating the undesired side effects of dental bleaching” (Dr. Gunnar Rolla Consultant AS, priority 2011, dated 2013).
Like-named read-outs stand apart in the source and are kept apart here.

Assays:
[1] = tested on: hypersensitive bleached front teeth
Procedure: A volunteer had performed a self-bleaching procedure on their teeth, using a home kit. They complained and described their front teeth as extremely sensitive for changes of temperature in drinks or food. The teeth were rinsed carefully with water at room temperature, and isolated with cotton rolls. The teeth were kept dry and then treated with a generous amount of a saturated aqueous solution of Ca(OH)2, at an acceptable temperature, for a period of about 5 minutes. After a few additional minutes the cotton rolls were removed, and treatment with an aqueous solution of 2.0% by weight of NaF was performed, to induce formation CaF2, to stabilize the calcium added.

[2] = saturated, or less than saturated, aqueous solutions
[3] = SEM micrographs of bleached human tooth enamel surface; details: human tooth enamel after bleaching with peroxide
From the text: FIG. 2: A SEM micrograph showing the same tooth surface (from FIG. 1) covered with a film of dehydrated Ca(OH)2.
FIG. 3: A SEM micrograph showing the same tooth surface (from FIG. 2) subsequently treated with 2% by weight NaF-solution.

Compound: [Ca+2].[OH-].[OH-] [Ca(OH)2, calcium hydroxide]
- tooth colour after treatment ([1]; after saturated Ca(OH)2 then 2.0% NaF treatment): maintained an acceptable colour
- reappearance of sensitivity after treatment ([1]; follow-up after saturated Ca(OH)2 then 2.0% NaF treatment): sensitivity has not reappeared
- hypersensitivity of bleached teeth after treatment ([1]; volunteer, saturated aqueous Ca(OH)2 about 5 minutes, followed by aqueous 2.0% by weight NaF): hypersensitivity was eliminated
- pH [2]: > 10
- pH ([2]; listed as calcium hydroxide): 14

Compound: OO [peroxide, hydrogen peroxide]
- enamel surface appearance after bleaching (SEM, FIG. 1) [3]: pitted and damaged by demineralization
